Assay results reported in publication PMC3375280 (PLoS ONE, 2012).
Changes are numbered by the printed parent chain.

Tests used:
[1] = target: T1, AT1 F110A mutant receptor (Rattus norvegicus, UniProt P25095, F110A); assay: competition binding, F110A mutant; conditions: for Kd ratio relative to WT (in parentheses): F110A / WT; for Kd: F110A, COS1 membranes, read-out: Binding affinity (Kd)
T1 construct: expressed in transfected cells; host or cells: COS1
T1 sequence (P25095 1-359 F110A): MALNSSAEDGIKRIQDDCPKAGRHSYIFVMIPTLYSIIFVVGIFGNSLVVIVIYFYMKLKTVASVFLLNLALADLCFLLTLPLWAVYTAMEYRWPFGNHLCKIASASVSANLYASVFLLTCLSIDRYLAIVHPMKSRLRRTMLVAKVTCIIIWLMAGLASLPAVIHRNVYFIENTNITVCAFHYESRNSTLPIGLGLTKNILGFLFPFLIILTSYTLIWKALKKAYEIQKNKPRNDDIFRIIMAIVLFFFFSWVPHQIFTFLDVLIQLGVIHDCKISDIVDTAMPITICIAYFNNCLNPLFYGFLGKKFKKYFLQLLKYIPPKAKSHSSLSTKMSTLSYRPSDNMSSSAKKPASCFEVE
Description: (§1) The Kd and Bmax values of receptor binding were determined by ^125I-[Sar^1, Ile^8] […] Membranes expressing the WT or mutant AT1 receptors were incubated with 100 pM ^125I-[Sar^1, Ile^8] […] The binding reaction was terminated by filtering the incubation mixture through Whatman GF/C glass filters, and the residues were extensively washed further with binding buffer. The bound ligand fraction was determined from the counts per minute (cpm) remaining on the membrane. Binding kinetics values were determined as previously described.

[2] = target: T2, AT1 L112A mutant receptor (Rattus norvegicus, UniProt P25095, L112A); assay: competition binding, L112A mutant; conditions: for Kd ratio relative to WT (in parentheses): L112A / WT; for Kd: L112A, COS1 membranes, read-out: Binding affinity (Kd)
T2 construct: expressed in transfected cells; host or cells: COS1
T2 sequence (P25095 1-359 L112A): T1 sequence (P25095 1-359 F110A) with A110F, L112A
Description: as §1

[3] = target: T3, AT1 Y113F mutant receptor (Rattus norvegicus, UniProt P25095, Y113F); assay: competition binding, Y113F mutant; conditions: for Kd ratio relative to WT (in parentheses): Y113F / WT; for Kd: Y113F, COS1 membranes, read-out: Binding affinity (Kd)
T3 construct: expressed in transfected cells; host or cells: COS1
T3 sequence (P25095 1-359 Y113F): T1 sequence (P25095 1-359 F110A) with A110F, Y113F
Description: as §1

[4] = target: T4, AT1 C76A/A106C/C289A mutant receptor (Rattus norvegicus, UniProt P25095, A106C/C289A/C76A); assay: competition binding, C76A/A106C/C289A mutant; conditions: for Kd ratio relative to WT (in parentheses): C76A/A106C/C289A / WT; for Kd: C76A/A106C/C289A, COS1 membranes, read-out: Binding affinity (Kd)
T4 construct: expressed in transfected cells; host or cells: COS1
T4 sequence (P25095 1-359 C76A/A106C/C289A): T1 sequence (P25095 1-359 F110A) with C76A, A106C, A110F, C289A
Description: as §1

[5] = target: T5, AT1 C76A/A114C/C289A mutant receptor (Rattus norvegicus, UniProt P25095, A114C/C289A/C76A); assay: competition binding, C76A/A114C/C289A mutant; conditions: for Kd ratio relative to WT (in parentheses): C76A/A114C/C289A / WT; for Kd: C76A/A114C/C289A, COS1 membranes, read-out: Binding affinity (Kd)
T5 construct: expressed in transfected cells; host or cells: COS1 cells (membranes)
T5 sequence (P25095 1-359 C76A/A114C/C289A): T1 sequence (P25095 1-359 F110A) with C76A, A110F, A114C, C289A
Description: as §1

[6] = target: T6, AT1 C76A/F117C/C289A mutant receptor (Rattus norvegicus, UniProt P25095, C289A/C76A/F117C); assay: competition binding, C76A/F117C/C289A mutant; conditions: for Kd ratio relative to WT (in parentheses): C76A/F117C/C289A / WT; for Kd: C76A/F117C/C289A, COS1 membranes, read-out: Binding affinity (Kd)
T6 construct: expressed in transfected cells; host or cells: COS1 cells (membranes)
T6 sequence (P25095 1-359 C76A/F117C/C289A): T1 sequence (P25095 1-359 F110A) with C76A, A110F, F117C, C289A
Description: as §1

Kd ratio relative to WT (in parentheses) [1] [fold] | Kd [1] [nM] | Kd ratio relative to WT (in parentheses) [2] [fold] | Kd ratio relative to WT (in parentheses) ([2]; listed as olmesartan) [fold] | Kd [2] [nM] | Kd ratio relative to WT (in parentheses) [3] [fold] | Kd ratio relative to WT (in parentheses) ([3]; listed as olmesartan) [fold] | Kd [3] [nM] | Kd ratio relative to WT (in parentheses) [4] [fold] | Kd [4] [nM] | Kd ratio relative to WT (in parentheses) [5] [fold] | Kd [5] [nM] | Kd ratio relative to WT (in parentheses) [6] [fold] | Kd [6] [nM] | SMILES
1.1 | 2.6 ± 0.5 | 12 | > 10 | 27 ± 7 | 23 | > 10 | 52 ± 7 | 3.9 | 8.9 ± 4 | 2.4 | 5.5 ± 2.6 | 1.0 | 2.4 ± 1.3 | CCCc1nc(C(C)(C)O)c(C(=O)O)n1Cc1ccc(-c2ccccc2-c2nnn[nH]2)cc1 [Olmesartan, olmesartan, reference compound]
1.4 | 68 ± 19 | 0.6 | – | 31 ± 5 | 8.1 | – | 388 ± 54 | 4.0 | 193 ± 73 | 2.7 | 128 ± 15 | 0.6 | 29 ± 9 | CCCc1nc(C(C)(C)O)c(C(N)=O)n1Cc1ccc(-c2cc(Cc3ccc(O)cc3)ccc2-c2nnn[nH]2)cc1 [R794847]
1.5 | 1.2 ± 0.3 | 54 | – | 43 ± 12 | 21 | – | 17 ± 3 | 5.1 | 4.1 ± 1 | 2.0 | 1.6 ± 0.7 | 2.8 | 2.2 ± 0.2 | CCCc1nc(C(C)(C)O)c(C(N)=O)n1Cc1ccc(-c2ccccc2-c2nnn[nH]2)cc1 [R239470]
